Source: patent US10555954B2, “Hazardous agent injection system” (Antares Pharma, Inc., priority 2009, dated 2020)
Where “and” joins values, the source holds several entries; their conditions need not be identical. Equal values may be shown once. Entries after “also recorded” stand apart in the source; their conditions may differ. Read-outs that look alike come from different tables or passages of the source.

Legend:
[1] = pediatric patients with juvenile rheumatoid arthritis, cited from earlier work
[2] = cited from earlier work
[3] = tested on: patients with active rheumatoid arthritis; conditions: cited from earlier work; for patients achieving ACR20: 16 weeks, starting dose 15 mg per week; for time to achieve an ACR20 response: subgroup n=98; for ACR20 responders: subgroup ≥1 year since diagnosis with prior DMARDs or steroids (n=98)
[4] = tested on: patients with rheumatoid arthritis; conditions: 15 mg per week, cited from earlier work
[5] = tested on: patients with rheumatoid arthritis; conditions: after switching from intramuscular to oral; cited from earlier work
[6] = tested on: rheumatoid arthritis patients; conditions: cited from earlier work
[7] = Pharmacokinetics of methotrexate in plasma after subcutaneous injection with autoinjector or needle/syringe; conditions: for AUC(0-inf) / AUC(0-τ) / Tmax / T½ / AUC: plasma; for AUC(0-t): individual animals; for AUC: AUC(0-τ)
[8] = Autoinjector, Female, 12.5 mg SC, animals S5196028/S5195684/S5195757
[9] = Autoinjector, Male, 12.5 mg SC, animals S5196273/S5196559/S5196206
[10] = Syringe, Female, 12.5 mg SC, animals S5196028/S5195684/S5195757
[11] = Syringe, Male, 12.5 mg SC, animals S5196273/S5196559/S5196206

In the case of `CN(Cc1cnc2nc(N)nc(N)c2n1)c1ccc(C(=O)N[C@@H](CCC(=O)O)C(=O)O)cc1` [Methotrexate, L-(+)-N-[p-[[(2,4-Diamino-6-pteridinyl)methyl]methylamino]-benzoyl]glutamic acid], the “average mean serum concentration” value ([1]; about 1 hour) is listed as “about 0.59 μM”, the “average mean serum concentration” value ([1]; about 2 hours) is listed as “about 0.44 μM” and the “average mean serum concentration” value ([1]; about 3 hours) is listed as “about 0.29 μM”. For the same compound, the “peak serum concentrations and bioavailability, intramuscular versus subcutaneous” value ([2]; Brooks et al., 12.5 mg to 25 mg per week) was “similar”, the “fall of total absorption after oral administration, maintenance versus starting dosage” value ([2]; Hamilton et al., start 7.5 mg per week, maintenance average 17 mg per week, 21 rheumatoid arthritis patients) was “about 13.5%” and the “patients achieving ACR20” value ([3]; oral) was 77%. The “time to achieve an ACR20 response” value ([3]; oral) was 6 weeks, the ACR20 responders ([3]; oral) was 63% and the “further ACR20 non-responders with positive ACR20 response” value ([3]; subcutaneous dosage increased from 15 mg to 20 mg) was 23%. The “patients achieving ACR20” value ([3]; subcutaneous) was 85%, the “time to achieve an ACR20 response” value ([3]; subcutaneous) was 4 weeks and the ACR20 responders ([3]; subcutaneous) was 89%. For the same compound, the “ACR20 non-responders with positive ACR20 response after switch” value ([3]; switched from 15 mg oral to 15 mg subcutaneous at 16 weeks) was 30%, the “average DAS28” value ([4]; after switch from oral to intramuscular administration) was 5.2 and the “average DAS28” value ([4]; before switch from oral to intramuscular administration) was 5.6. The patients reporting nausea [5] was 48%, the “patients judged to have moderate or marked improvement” value ([6]; 10 mg to 15 mg intramuscular once a week, 78 patients) was “Eighty-two” and the “patients who deteriorated after switching to oral methotrexate” value ([6]; improved after switching back to intramuscular) was 10 of 48 patients. The “difference in exposure / PK parameters between males and females” value ([7]; 12.5 mg SC, both devices) was “no marked difference; also recorded: no marked sex-related differences”, the “exposure with autoinjector compared to needle/syringe” value ([7]; 12.5 mg SC, male and female minipigs) was “very similar; also recorded: comparable” and the “AUC(0-inf)” value [7, 8] was 1859 ng·mL·h. For the same compound, the “AUC(0-τ)” value [7, 8] was 1857 ng·mL·h, the Tmax [7, 8] was 15 min and the T½ [7, 8] was 237 min and 196 min. The “AUC(0-t)” value ([7]; Autoinjector, Female, Day 8) was 2498 ng·h/mL and 1857 ng·h/mL, the T½ ([7]; Autoinjector, Male, 12.5 mg SC, Mean) was 115 min and the Tmax ([7]; Autoinjector, Male, 12.5 mg SC, Median) was 15 min. The “AUC(0-inf)” value [7, 9] was 1903 ng·mL·h and 1407 ng·mL·h, the Tmax [7, 9] was 15 min and the T½ [7, 9] was 120 min. The “AUC(0-t)” value ([7]; Needle/Syringe, Female, Day 1) was 2378 ng·h/mL and 1831 ng·h/mL, the Tmax ([7]; Syringe, Female, 12.5 mg SC, Median) was 15 min and the “AUC(0-inf)” value [7, 10] was 2675 ng·mL·h and 1832 ng·mL·h. The Tmax [7, 10] was 15 min, the Tmax ([7]; Syringe, Male, 12.5 mg SC, Median) was 15 min and the T½ ([7]; Syringe, Male, 12.5 mg SC, animal S5196559) was 115 min. For the same compound, the “AUC(0-τ)” value [7, 11] was 2464 ng·mL·h and 2016 ng·mL·h, the Tmax [7, 11] was 15 min and 30 min and the “time at which maximal plasma concentrations were generally observed” value ([7]; both devices, first collection time point) was 0.25 h. The AUC(0-inf) ([7]; female, Gottingen, minipig, sc, 12.5 mg, AUC(0-inf), Autoinjector, 12.5 mg SC, Mean) was 2510 ng·h/mL, the AUC(0-inf) ([7]; female, Gottingen, minipig, sc, 12.5 mg, AUC(0-inf), Autoinjector, 12.5 mg SC, animals S5196028/S5195684/S5195757) was 3170 ng·h/mL and the AUC(0-inf) ([7]; female, Gottingen, minipig, sc, 12.5 mg, AUC(0-inf), Syringe, 12.5 mg SC, Mean) was 2300 ng·h/mL. It also gave an AUC(0-inf) ([7]; female, Gottingen, minipig, sc, 12.5 mg, AUC(0-inf), Syringe, 12.5 mg SC, animals S5196028/S5195684/S5195757) of 2380 ng·h/mL, an AUC ([7]; female, Gottingen, minipig, sc, 12.5 mg, Syringe, 12.5 mg SC, animals S5196028/S5195684/S5195757) of 1830 ng·h/mL and an AUC(0-inf) ([7]; male, Gottingen, minipig, sc, 12.5 mg, AUC(0-inf), Autoinjector, 12.5 mg SC, Mean) of 1490 ng·h/mL. The AUC(0-inf) ([7]; male, Gottingen, minipig, sc, 12.5 mg, AUC(0-inf), Autoinjector, 12.5 mg SC, animals S5196273/S5196559/S5196206) was 1160 ng·h/mL, the AUC(0-inf) ([7]; male, Gottingen, minipig, sc, 12.5 mg, AUC(0-inf), Syringe, 12.5 mg SC, animal S5196559) was 2470 ng·h/mL and the AUC ([7]; male, Gottingen, minipig, sc, 12.5 mg, Syringe, 12.5 mg SC, Mean) was 1940 ng·h/mL. For the same compound, the AUC ([7]; male, Gottingen, minipig, sc, 12.5 mg, Syringe, 12.5 mg SC, animals S5196273/S5196559/S5196206) was 1320 ng·h/mL.
